PubChem BioAssay AID1963428 (Molecular Pharmacology Branch, DTP, NCI, 2024)

Test system: 171881-019-R-J1-PDC complex spheroid growth, % test/control
Assay: Anticancer human tumor 171881-019-R-J1-PDC patient-derived invasive breast carcinoma cell line growth inhibition [Asc]
Settings: for IC50: curve of first compound; for viability, T/C: stronger effect = lower value
Summary of the method: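 Tumor cells were grown as complex spheroids with human endothelial cells (HUVEC) and human mesenchymal stem cells as stroma. Agents were tested alone and in combination, in half-log steps down from the clinical Cmax, or from 10 microM where Cmax was unknown.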

[1] = second compound 0.01 µM, first compound 0.0316 µM
[2] = second compound 0.01 µM, first compound 0.1 µM
[3] = second compound 0.01 µM, first compound 0.316 µM
[4] = second compound 0.01 µM, first compound 1 µM
[5] = second compound 0.01 µM, first compound 3.16 µM
[6] = second compound 0.01 µM, first compound 10 µM
[7] = second compound 0.0316 µM, first compound 0.0316 µM
[8] = second compound 0.0316 µM, first compound 0.1 µM
[9] = second compound 0.0316 µM, first compound 0.316 µM
[10] = second compound 0.0316 µM, first compound 1 µM
[11] = second compound 0.0316 µM, first compound 3.16 µM
[12] = second compound 0.0316 µM, first compound 10 µM
[13] = second compound 0.1 µM, first compound 0.0316 µM
[14] = second compound 0.1 µM, first compound 0.1 µM
[15] = second compound 0.1 µM, first compound 0.316 µM
[16] = second compound 0.1 µM, first compound 1 µM
[17] = second compound 0.1 µM, first compound 3.16 µM
[18] = second compound 0.1 µM, first compound 10 µM
[19] = second compound 0.316 µM, first compound 0.0316 µM
[20] = second compound 0.316 µM, first compound 0.1 µM
[21] = second compound 0.316 µM, first compound 0.316 µM
[22] = second compound 0.316 µM, first compound 1 µM
[23] = second compound 0.316 µM, first compound 3.16 µM
[24] = second compound 0.316 µM, first compound 10 µM
[25] = second compound 1 µM, first compound 0.0316 µM
[26] = second compound 1 µM, first compound 0.1 µM
[27] = second compound 1 µM, first compound 0.316 µM
[28] = second compound 1 µM, first compound 1 µM
[29] = second compound 1 µM, first compound 3.16 µM
[30] = second compound 1 µM, first compound 10 µM
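Wherever viability, T/C is given: spheroids exposed to compounds for 7 days.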

SMILES: C#Cc1c(F)ccc2cc(O)cc(-c3ncc4c(N5CC6CCC(C5)N6)nc(OCC56CCCN5CC(F)C6)nc4c3F)c12 (stereo not given) + CNC(C)C(=O)NC1CN(S(=O)(=O)c2cccc(S(=O)(=O)N3CCC4CCC(C(=O)NC(c5ccccc5)c5ccccc5)N4C(=O)C(NC(=O)C(C)NC)C3)c2)CCC2CCC(C(=O)NC(c3ccccc3)c3ccccc3)N2C1=O
- IC50 (second compound 0.01 µM): > 10 µM
- IC50 (second compound 0.0316 µM): > 10 µM
- IC50 (second compound 0.1 µM): > 10 µM
- IC50 (second compound 0.316 µM): > 10 µM
- IC50 (second compound 1 µM): > 10 µM
- viability, T/C [1]: 98%
- viability, T/C [2]: 116%
- viability, T/C [3]: 125%
- viability, T/C [4]: 187%
- viability, T/C [5]: 254%
- viability, T/C [6]: 248%
- viability, T/C [7]: 107%
- viability, T/C [8]: 107%
- viability, T/C [9]: 131%
- viability, T/C [10]: 216%
- viability, T/C [11]: 261%
- viability, T/C [12]: 255%
- viability, T/C [13]: 105%
- viability, T/C [14]: 122%
- viability, T/C [15]: 134%
- viability, T/C [16]: 168%
- viability, T/C [17]: 247%
- viability, T/C [18]: 245%
- viability, T/C [19]: 102%
- viability, T/C [20]: 109%
- viability, T/C [21]: 109%
- viability, T/C [22]: 170%
- viability, T/C [23]: 214%
- viability, T/C [24]: 230%
- viability, T/C [25]: 99.3%
- viability, T/C [26]: 109%
- viability, T/C [27]: 138%
- viability, T/C [28]: 170%
- viability, T/C [29]: 219%
- viability, T/C [30]: 235%

SMILES: C=C(F)C(=O)N1CCN(c2nc(OCC3CCCN3C)nc3c2CCN(c2cccc4cccc(Cl)c24)C3)CC1CC#N (stereo not given) + CNC(C)C(=O)NC1CN(S(=O)(=O)c2cccc(S(=O)(=O)N3CCC4CCC(C(=O)NC(c5ccccc5)c5ccccc5)N4C(=O)C(NC(=O)C(C)NC)C3)c2)CCC2CCC(C(=O)NC(c3ccccc3)c3ccccc3)N2C1=O
- IC50 (second compound 0.01 µM): 5.65 µM
- IC50 (second compound 0.0316 µM): 5.51 µM
- IC50 (second compound 0.1 µM): 5.69 µM
- IC50 (second compound 0.316 µM): 5.54 µM
- IC50 (second compound 1 µM): 5.41 µM
- viability, T/C [1]: 93.5%
- viability, T/C [2]: 91.3%
- viability, T/C [3]: 95%
- viability, T/C [4]: 101%
- viability, T/C [5]: 113%
- viability, T/C [6]: 1.9%
- viability, T/C [7]: 90%
- viability, T/C [8]: 88.8%
- viability, T/C [9]: 76.7%
- viability, T/C [10]: 112%
- viability, T/C [11]: 112%
- viability, T/C [12]: 0.82%
- viability, T/C [13]: 95.9%
- viability, T/C [14]: 97.2%
- viability, T/C [15]: 100%
- viability, T/C [16]: 104%
- viability, T/C [17]: 107%
- viability, T/C [18]: 1.02%
- viability, T/C [19]: 81.3%
- viability, T/C [20]: 91.1%
- viability, T/C [21]: 86.1%
- viability, T/C [22]: 106%
- viability, T/C [23]: 111%
- viability, T/C [24]: 2.51%
- viability, T/C [25]: 90.3%
- viability, T/C [26]: 84.6%
- viability, T/C [27]: 86.5%
- viability, T/C [28]: 95.5%
- viability, T/C [29]: 106%
- viability, T/C [30]: 1.17%
